Reference: patent publication US11802120B2, “Fused cyclic urea derivatives as CRHR2 antagonist” (RaQualia Pharma Inc., priority 2018, dated 2023)
pIC50: −log10 of the molar value.

Target: T1, human CRHR2-alpha (Homo sapiens, UniProt Q13324)
T1 sequence (Q13324 1-411): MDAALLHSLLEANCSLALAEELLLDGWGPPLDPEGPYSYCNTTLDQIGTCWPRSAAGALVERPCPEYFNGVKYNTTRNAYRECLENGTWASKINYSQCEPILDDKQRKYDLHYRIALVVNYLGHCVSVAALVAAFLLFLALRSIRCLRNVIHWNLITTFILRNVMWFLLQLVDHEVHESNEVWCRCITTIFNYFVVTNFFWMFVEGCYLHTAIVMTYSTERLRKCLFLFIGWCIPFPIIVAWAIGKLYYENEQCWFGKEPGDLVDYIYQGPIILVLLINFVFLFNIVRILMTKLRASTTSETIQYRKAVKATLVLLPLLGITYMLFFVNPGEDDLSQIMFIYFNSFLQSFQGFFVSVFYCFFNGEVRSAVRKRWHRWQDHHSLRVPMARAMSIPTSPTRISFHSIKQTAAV
Assay: cAMP functional assay for human CRHR2 (LANCE Ultra cAMP, TR-FRET)
Format: cell-based
Conditions: CHO-K1 cells expressing human CRHR2-alpha, agonist human urocortin2 at EC80, cAMP; read-out: IC50 against CRHR2
Method: cAMP functional assay for human CRHR1 and CRHR2
The ability of the compounds of this invention to inhibit either CRHR2 or CRHR1 is assessed by 3′,5′-cyclic adenosine monophosphate (cAMP) production in cells using the LANCE Ultra cAMP assay kit (ParkinElmer), which are designed based on the homogeneous time-resolved fluorescence resonance energy transfer (TR-FRET) immunoassay.
CHO-K1 (Chinese hamster ovary) cells stably expressing either human CRHR2-alpha (DiscoveRX, Cat. 95-0048C2) or human CRHR1-beta (DiscoveRX, Cat. 95-0047C2) are grown in HAM's F12 media supplemented with 10% fetal bovine serum (FBS), 100 units/mL penicillin, 100 microg/mL hygromycin and 0.5 microg/mL geneticin at 37° C. in 5% CO2 humidified incubator to 80% confluence. After 7 hours starvation treatment in culture media containing 0.1% FBS, the cells are washed with Hanks balanced salt solution (HBSS) and cryopreserved.
For cAMP assay, frozen cells are thawed and washed with HBSS, followed by resuspended in assay buffer (HBSS containing 0.1% bovine serum albumin, 0.5 mM isobutylmethylxanthine and 5 mM Hepes, pH 7.4) at the appropriate concentration for the assay. The cell suspensions are plated on 384-well microplates (Greiner Bio-One) at a density of 4,000 cells per well. After preincubating the cells with various concentrations of the compounds for 30 min at 25° C., an assay buffer containing EC80 concentration of each agonist is added and the cells are incubated for 30 min at 25° C. Human urocortin2 (Peptide Institute) and CRF (Peptide Institute) are used as agonists for CRHR2 and CRHR1, respectively. For the termination of assay, europium-labeled cAMP tracer and ULight (registered trademark) dye labeled cAMP antibodies, both prepared with Lance-Ultra cAMP detection reagent (Perkin Elmer) are added in the plate and incubate for 60 min at 25° C. After incubation, TR-FRET signal is detected by EnVision plate reader (PerkinElmer). The IC50 values for compounds are calculated from dose-response curves by fitting the percent inhibition using XLfit (ID Business Solutions).

Row | Structure (SMILES) | pIC50
1 | CNC(=O)c1cc(C)c(-n2c(=O)n(C[C@H]3CC[C@H](NC(=O)c4cc(Cl)cnc4C(F)(F)F)CC3)c3ccccc32)cn1 [Example 313, 5-(3-(((1r,4r)-4-(5-chloro-2-(trifluoromethyl)nico-tinamido)cyclohexyl)methyl)-2-oxo-2,3-dihydro-1H-benzo[d]imidazol-1-yl)-N,4-dimethylpicolinamide] | > 6.52
2 | O=C(N[C@H]1CC[C@H](Cn2c(=O)n(-c3ccc(OCCO)nc3)c3ccccc32)CC1)c1cc(Cl)cnc1C(F)(F)F [Example 301, 5-chloro-N-((1r,4r)-4-((3-(6-(2-hydroxyethoxy)pyridin-3-yl)-2-oxo-2,3-dihydro-1H-benzo[d]imidazol-1-yl)methyl)cyclohexyl)-2-(trifluoromethyl)nicotinamide] | > 6.52
3 | CNC(=O)c1ccc(-n2c(=O)n(C[C@H]3CC[C@H](NC(=O)c4cc(Cl)cnc4CCOC)CC3)c3ccccc32)cn1 [Example 321, 5-(3-(((1r,4r)-4-(5-chloro-2-(2-methoxyethyl)nico-tinamido)cyclohexyl)methyl)-2-oxo-2,3-dihydro-1H-benzo [d]imidazol-1-yl)-N-methylpicolinamide] | > 6.52
4 | Cc1cc(OCCO)ncc1-n1c(=O)n(C[C@H]2CC[C@H](NC(=O)c3cc(Cl)cnc3C(F)(F)F)CC2)c2ccccc21 [Example 357, 5-chloro-N-((1r,4r)-4-((3-(6-(2-hydroxyethoxy)-4-methylpyridin-3-yl)-2-oxo-2,3-dihydro-1H-benzo[d]imidazol-1-yl)methyl)cyclohexyl)-2-(trifluoromethyl)nicotinamide] | > 6.52
5 | Cc1ncc(Cl)cc1C(=O)N[C@H]1CC[C@H](Cn2c(=O)n(-c3ccc4c(C)nn(C)c4c3)c3ccccc32)CC1 [Example 191, 5-chloro-N-((1r,4r)-4-((3-(1,3-dimethyl-1H-indazol-6-yl)-2-oxo-2,3-dihydro-1H-benzo[d]imidazol-1-yl)methyl)cyclohexyl)-2-methylnicotinamide] | > 6.52
6 | CNC(=O)c1ccc(-n2c(=O)n(C[C@H]3CC[C@H](NC(=O)c4cc(Cl)cnc4C)CC3)c3cc(OC)ccc32)cn1 [Example 194, 5-(3-(((1r,4r)-4-(5-chloro-2-methylnicotinamido)cyclohexyl)methyl)-5-methoxy-2-oxo-2,3-dihydro-1H-benzo[d]imidazol-1-yl)-N-methylpicolinamide] | > 6.52
7 | Cc1ncc(Cl)cc1C(=O)N[C@H]1CC[C@H](Cn2c(=O)n(-c3ccc(-c4ccccc4CO)nc3)c3ccccc32)CC1 [Example 90, 5-chloro-N-((1r,4r)-4-((3-(6-(2-(hydroxymethyl)phenyl)pyridin-3-yl)-2-oxo-2,3-dihydro-1H-benzo[d]imidazol-1-yl)methyl)cyclohexyl)-2-methylnicotinamide] | > 6.52
8 | Cc1ncc(Cl)cc1C(=O)N[C@H]1CC[C@H](Cn2c(=O)n(-c3cccc4cccnc34)c3ccccc32)CC1 [Example 337, 5-chloro-2-methyl-N-((1r,4r)-4-((2-oxo-3-(quinolin-8-yl)-2,3-dihydro-1H-benzo[d]imidazol-1-yl)methyl)cyclo-hexyl)nicotinamide] | > 6.52
9 | Cc1ncc(Cl)cc1C(=O)N[C@H]1CC[C@H](Cn2c(=O)n(-c3cnc4c(N)ncnc4c3)c3ccccc32)CC1 [Example 319, N-((1r,4r)-4-((3-(4-aminopyrido[3,2-d]pyrimidin-7-yl)-2-oxo-2,3-dihydro-1H-benzo[d]imidazol-1-yl)methyl)cyclohexyl)-5-chloro-2-methylnicotinamide] | > 6.52
10 | CNc1ncc(-n2c(=O)n(C[C@H]3CC[C@H](NC(=O)c4cc(Cl)cnc4C)CC3)c3ccccc32)cc1C [Example 133, 5-chloro-2-methyl-N-((1r,4r)-4-((3-(5-methyl-6-(methyl-amino)pyridin-3-yl)-2-oxo-2,3-dihydro-1H-benzo[d]imidazol-1-yl)methyl)cyclohexyl) nicotinamide] | > 6.52
11 | O=C(N[C@H]1CC[C@H](Cn2c(=O)n(-c3ccc(N4CCOCC4)nc3)c3ccccc32)CC1)c1cc(Cl)cnc1C(F)F [Example 383, 5-chloro-2-(difluoromethyl)-N-((1r,4r)-4-((3-(6-morpholino-pyridin-3-yl)-2-oxo-2,3-dihydro-1H-benzo[d]imidazol-1-yl)methyl)cyclohexyl) nicotinamide] | > 6.52

More lines, now with the values ahead:

Row | pIC50 | Structure (SMILES)
12 | > 6.52 | Cc1ncc(Cl)cc1C(=O)N[C@H]1CC[C@H](Cn2c(=O)n(-c3ccc(SCCO)nc3)c3ccccc32)CC1 [Example 412, 5-chloro-N-((1r,4r)-4-((3-(6-((2-hydroxyethyl)thio)pyridin-3-yl)-2-oxo-2,3-dihydro-1H-benzo[d]imidazol-1-yl)methyl)cyclohexyl)-2-methylnicotinamide]
13 | > 6.52 | O=C(N[C@H]1CC[C@H](Cn2c(=O)n(-c3ccc(-n4ccnc4)cc3)c3ccccc32)CC1)c1cc(Cl)cnc1C(F)F [Example 569, N-((1r,4r)-4-((3-(4-(1H-imidazol-1-yl)phenyl)-2-oxo-2,3-dihydro-1H-benzo[d]imidazol-1-yl)methyl)cyclo-hexyl)-5-chloro-2-(difluoro-methyl)nicotinamide]
14 | > 6.52 | Cn1c(CO)cc2cc(-n3c(=O)n(C[C@H]4CC[C@H](NC(=O)c5cc(Cl)cnc5C(F)F)CC4)c4ccccc43)cnc21 [Example 732, 5-chloro-2-(difluoromethyl)-N-((1r,4r)-4-((3-(2-(hydroxymethyl)-1-methyl-1H-pyrrolo[2,3-b]pyridin-5-yl)-2-oxo-2,3-dihydro-1H-benzo[d]imidazol-1-yl)methyl)cyclohexyl)nicotinamide]
15 | > 6.52 | Cc1ncc(Cl)cc1C(=O)N[C@H]1CC[C@H](Cn2c(=O)n(-c3cncc(-c4cnco4)c3)c3ccccc32)CC1 [Example 485, 5-chloro-2-methyl-N-((1r,4r)-4-((3-(5-(oxazol-5-yl)pyridin-3-yl)-2-oxo-2,3-dihydro-1H-benzo[d]imidazol-1-yl)methyl)cyclohexyl)nicotinamide]
16 | > 6.52 | CNC(=O)c1ccc(-n2c(=O)n(C[C@H]3CC[C@H](NC(=O)c4cc(Cl)ccc4OC(F)F)CC3)c3ccccc32)cn1 [Example 533, 5-(3-(((1r,4r)-4-(5-chloro-2-(difluoromethoxy)benzamido)cyclohexyl)methyl)-2-oxo-2,3-dihydro-1H-benzo[d]imidazol-1-yl)-N-methylpicolinamide]
17 | > 6.52 | Cc1ncc(Cl)cc1C(=O)N[C@H]1CC[C@H](Cn2c(=O)n(-c3cccc(-c4cocn4)c3)c3ccccc32)CC1 [Example 568, 5-chloro-2-methyl-N-((1r,4r)-4-((3-(3-(oxazol-4-yl)phenyl)-2-oxo-2,3-dihydro-1H-benzo [d]imidazol-1-yl)methyl)cyclo-hexyl)nicotinamide]
18 | > 6.52 | CN1CCN(c2cc(-n3c(=O)n(C[C@H]4CC[C@H](NC(=O)c5cc(Cl)cnc5C(F)F)CC4)c4ccccc43)ccn2)C1=O [Example 707, 5-chloro-2-(difluoromethyl)-N-((1r,4r)-4-((3-(2-(3-methyl-2-oxoimidazolidin-1-yl)pyridin-4-yl)-2-oxo-2,3-dihydro-1H-benzo[d]imidazol-1-yl)methyl)cyclohexyl) nicotinamide]
19 | > 6.52 | Cc1ncc(Cl)cc1C(=O)N[C@H]1CC[C@H](Cn2c(=O)n(-c3cncc(-n4cccn4)c3)c3ccccc32)CC1 [Example 636, N-((1r,4r)-4-((3-(5-(1H-pyrazol-1-yl)pyridin-3-yl)-2-oxo-2,3-dihydro-1H-benzo[d]imidazol-1-yl)methyl)cyclohexyl)-5-chloro-2-methylnicotinamide]
20 | > 6.52 | Cc1ncc(Cl)cc1C(=O)N[C@H]1CC[C@H](Cn2c(=O)n(-c3ccc(-c4ccn(C)n4)nc3)c3ccccc32)CC1 [Example 654, 5-chloro-2-methyl-N-((1r,4r)-4-((3-(6-(1-methyl-1H-pyrazol-3-yl)pyridin-3-yl)-2-oxo-2,3-dihydro-1H-benzo[d]imidazol-1-yl)methyl)cyclohexyl)nico-tinamide]
21 | > 6.52 | CNc1cc(-n2c(=O)n(C[C@H]3CC[C@H](NC(=O)c4cc(Cl)cnc4C)CC3)c3ccccc32)ccn1 [Example 573, 5-chloro-2-methyl-N-((1r,4r)-4-((3-(2-(methylamino)pyridin-4-yl)-2-oxo-2,3-dihydro-1H-benzo[d]imidazol-1-yl)methyl)cyclohexyl)nicotinamide]
